This is an account of results in patent US4282245A, “Dibenzothiepin derivatives and a process for producing the same” (Nippon Chemiphar Co., Ltd., priority 1978, dated 1981).

Like-named read-outs stand apart in the source and are kept apart here.

This experiment deals with edema in the hind paws (carrageenan). Nature of the experiment: carrageenan-induced hind paw edema in rats, oral administration (antiinflammatory effect). The class given is in vivo, Male Wistar rats. To be noted: for inhibition in vivo at 2 mg/kg: Rattus norvegicus, read-out: Inhibition (%) (after 3 hours); for Rate to Indomethacin: relative to Indomethacin = 1.00. Here is the method:
Male Wistar rats each weighing about 100 g, one group consisting of 5 to 7 animals, were orally given the compounds of the present invention and Indomethacin as a contrast, and edema was then induced in the hind paws by subcutaneous injection of 0.1 ml of 1% carrageenan one hour after the administration of the test compounds. Thereafter, the volumes of the hind paws with a predetermined lapse of time were measured by a volume differential meter.
On the technique in general: The carrageenan paw model is a standard test of acute inflammation.

[1] abbreviates: oral, 2 mg/kg, after 3 hours, carrageenan hind paw edema, male Wistar rats.
[2] abbreviates: oral, 2 mg/kg, carrageenan hind paw edema, male Wistar rats.

For the compound `CC(C(=O)O)c1ccc2c(c1)C(=O)Cc1cc(F)ccc1S2` (stereo not drawn) [Compound 7, 2(10,11-dihydro-8-fluoro-11-oxodibenzo[b,f]thiepin2-yl)-propionic acid], under setting [1], the inhibition in vivo at 2 mg/kg is 66.8%. The “Rate to Indomethacin” value under setting [2] is given as 4.56.
The corresponding values for `COc1ccc2c(c1)CC(=O)c1cc(C(C)C(N)=O)ccc1S2` (stereo not drawn) [Compound 1, 2(10,11-dihydro-8-methoxy-11-oxodibenzo[b,f]thiepin2-yl)-propionamide] are 67.8% and 5.2.
With `CC(C(N)=O)c1ccc2c(c1)C(=O)Cc1ccc(F)cc1S2` (stereo not drawn) [Compound 8, 2(10,11-dihydro-7-fluoro-11-oxodibenzo[b,f]thiepin2-yl)-propionamide], under setting [1], the inhibition in vivo at 2 mg/kg was 41.9%. Moreover, the “Rate to Indomethacin” value under setting [2] is reported as 1.45.
For `COc1ccc2c(c1)c(CC(=O)O)c(C)n2C(=O)c1ccc(Cl)cc1` [Indomethacin, reference compound], the inhibition in vivo at 2 mg/kg (po, 3 h) was 34.5%. The “Rate to Indomethacin” value under setting [2] is given as 1.00.
Regarding `CC(C(N)=O)c1ccc2c(c1)C(=O)Cc1cc(F)ccc1S2` (stereo not drawn) [Compound 6, 2(10,11-dihydro-8-fluoro-11-oxodibenzo[b,f]thiepin2-yl)-propionamide], the inhibition in vivo at 2 mg/kg under setting [1] was determined as 58.4%. Also, under setting [2], the “Rate to Indomethacin” value was 2.29.
In the same order, the values of `CCOc1ccc2c(c1)CC(=O)c1cc(C(C)C(N)=O)ccc1S2` (stereo not drawn) [Compound 3, 2(10,11-dihydro-8-ethoxy-11-oxodibenzo[b,f]thiepin2-yl)-propionamide] are 40.4% and 1.2.
Regarding `CC(C(=O)O)c1ccc2c(c1)C(=O)Cc1cc(Cl)ccc1S2` (stereo not drawn) [Compound 5, 2(8-chloro-10,11-dihydro-11-oxodibenzo[b,f]thiepin2-yl)-propionic acid], the inhibition in vivo at 2 mg/kg under setting [1] worked out at 61.6%. Besides, under setting [2], the “Rate to Indomethacin” value is 2.7.
Turning to `COc1ccc2c(c1)CC(=O)c1cc(C(C)C(=O)O)ccc1S2` (stereo not drawn) [Compound 2, 2(10,11-dihydro-8-methoxy-11-oxodibenzo[b,f]thiepin2-yl)-propionic acid], the inhibition in vivo at 2 mg/kg under setting [1] is 48.2%. In addition, the “Rate to Indomethacin” value under setting [2] is 1.9.
Turning to `CC(C(N)=O)c1ccc2c(c1)C(=O)Cc1cc(Cl)ccc1S2` (stereo not drawn) [Compound 4, 2(8-chloro-10,11-dihydro-11-oxodibenzo[b,f]thiepin2-yl)-propionamide], under setting [1], the inhibition in vivo at 2 mg/kg came out at 46.8%. In addition, under setting [2], the “Rate to Indomethacin” value came to 1.4.
